Source: patent US7527975B2, “Determination of high lipophilicity values” (Hoffmann-La Roche Inc., priority 2005, dated 2009)

What was measured:
[1] = known log D values from literature; sources a) MEDChem01, MEDChem03, b) calculated from logP and pKa, c) Winiwarter et al. 1998; cited from earlier work
[2] = DIFI-log D: octanol-impregnated PVDF membrane (DIFI-tubes) / buffer distribution, UV readout; conditions: for logD at 2 h: pH 7.4
Experimental: All compounds of the validation set were dissolved in dimethylsulfoxide at a concentration of 10 mM (DMSO-stock).
The experiment started with the accurate coating of 0,45 μm hydrophobic PVDF membranes (Immobilon-P PVDF (Millipore) and PVDF-Plus (Whatman, Headquater: 27 Great West Road, Brentford, Middlesex, TW8 9BW, UK), which were fixed on the bottom of the DI FI-tub es.
Each membrane is impregnated with exactly 1 μl octanol and 1μl DMSO-stock.
After a short incubation of 10 min the tubes with the coated membranes were connected to a 96-deepwell plate which had been prefilled with exactly 1600 μl of the selected buffer solution (50 mM TAPSO (FLUKA, BioChemika, ArtNo.93357), pH 7.4).
The plate was then sealed and shaken for two hours. During this time the substance was distributed between the membrane, the octanol and the buffer solution accordingly.
After the distribution equilibrium was reached (after 2 h) the tubes were carefully disassembled from the top of the deepwell plate in order to analyze the octanol phase which still stucks to the membrane.
Therefore, the remaining compound in the octanol phase was washed out with additional octanol as eluent. The concentration of the substance in the eluent was then determined by UV spectroscopy at absorption wavelengths between 250 and 450 nm.
In order to know the exact sample concentration before incubation with buffer a reference plate was generated under the same conditions as the described sample plate above. The reference plate was directly treated with the eluent and the resulted reference concentration in the octanol phase was measured by UV spectroscopy.
The lipophilicity value log D may be calculated from the analyzed sample concentration after incubation with buffer (Co) and the reference concentration before distribution (Cref).
Due to the fact, that all UV measurements were carried out under the same conditions, the concentration term were replaced by UV-absorption values (Abs) at the same wavelength.
In this equation, Vw is the volume of the aqueous phase was divided by the volume of the octanol phase Vo.
For each compounds three determinations were performed according to the described method above. The preparation of the reference and sample plate was performed manually.

SMILES: COc1ccc(CCN2CCC(Nc3nc4ccccc4n3Cc3ccc(F)cc3)CC2)cc1 [Astemizole]
- Lit. log D [1]: 4.10
- logD at 2 h [2]: 4.12

SMILES: COc1ccccc1OCCNCC(O)COc1cccc2[nH]c3ccccc3c12 (centres unmarked) [Carvedilol]
- Lit. log D [1]: 3.37
- logD at 2 h [2]: 3.38

SMILES: CN(C)CC/C=C1/c2ccccc2Sc2ccc(Cl)cc21 [Chlorprothixene]
- Lit. log D [1]: 4.19
- logD at 2 h [2]: 4.24

SMILES: Clc1ccccc1C(c1ccccc1)(c1ccccc1)n1ccnc1 [Clotrimazole]
- Lit. log D [1]: 4.99
- logD at 2 h [2]: 4.91

SMILES: C[C@@H]1C[C@H]2[C@@H]3CCC4=CC(=O)C=C[C@]4(C)[C@@]3(F)[C@@H](O)C[C@]2(C)[C@@]1(O)C(=O)CO [Dexamethasone]
- DIFI-log D ([2]; 1 μl octanol on 0,45 μm PVDF membrane / 1600 μl 50 mM TAPSO pH 7.4, shaken 2 h, UV 250-450 nm, three determinations): 1.83

SMILES: COc1ccc([C@@H]2Sc3ccccc3N(CCN(C)C)C(=O)[C@@H]2OC(C)=O)cc1 [Diltiazem]
- Lit. log D [1]: 2.32
- logD at 2 h [2]: 2.33

SMILES: CCOC(=O)C1=C(C)NC(C)=C(C(=O)OC)C1c1cccc(Cl)c1Cl (centres unmarked) [Felodipine]
- logD at 2 h [2]: 4.84

SMILES: Clc1ccc(C(c2ccccc2Cl)C(Cl)Cl)cc1 (centres unmarked) [Mitotane]
- Lit. log D [1]: 4.87
- logD at 2 h [2]: 4.78

SMILES: COCCOC(=O)C1=C(C)NC(C)=C(C(=O)OC(C)C)C1c1cccc([N+](=O)[O-])c1 (centres unmarked) [Nimodipine]
- Lit. log D [1]: 3.73
- logD at 2 h [2]: 3.61

SMILES: C[C@]12CC[C@H]3[C@@H](CCC4=CC(=O)CC[C@@]43C)[C@@H]1CC[C@@H]2O [Testosterone]
- logD at 2 h [2]: 3.33
